Legend:
Androgen receptor = target: T1, Androgen receptor (Rattus norvegicus, UniProt P15207); assay type: functional
T1 sequence (P15207 whole entry): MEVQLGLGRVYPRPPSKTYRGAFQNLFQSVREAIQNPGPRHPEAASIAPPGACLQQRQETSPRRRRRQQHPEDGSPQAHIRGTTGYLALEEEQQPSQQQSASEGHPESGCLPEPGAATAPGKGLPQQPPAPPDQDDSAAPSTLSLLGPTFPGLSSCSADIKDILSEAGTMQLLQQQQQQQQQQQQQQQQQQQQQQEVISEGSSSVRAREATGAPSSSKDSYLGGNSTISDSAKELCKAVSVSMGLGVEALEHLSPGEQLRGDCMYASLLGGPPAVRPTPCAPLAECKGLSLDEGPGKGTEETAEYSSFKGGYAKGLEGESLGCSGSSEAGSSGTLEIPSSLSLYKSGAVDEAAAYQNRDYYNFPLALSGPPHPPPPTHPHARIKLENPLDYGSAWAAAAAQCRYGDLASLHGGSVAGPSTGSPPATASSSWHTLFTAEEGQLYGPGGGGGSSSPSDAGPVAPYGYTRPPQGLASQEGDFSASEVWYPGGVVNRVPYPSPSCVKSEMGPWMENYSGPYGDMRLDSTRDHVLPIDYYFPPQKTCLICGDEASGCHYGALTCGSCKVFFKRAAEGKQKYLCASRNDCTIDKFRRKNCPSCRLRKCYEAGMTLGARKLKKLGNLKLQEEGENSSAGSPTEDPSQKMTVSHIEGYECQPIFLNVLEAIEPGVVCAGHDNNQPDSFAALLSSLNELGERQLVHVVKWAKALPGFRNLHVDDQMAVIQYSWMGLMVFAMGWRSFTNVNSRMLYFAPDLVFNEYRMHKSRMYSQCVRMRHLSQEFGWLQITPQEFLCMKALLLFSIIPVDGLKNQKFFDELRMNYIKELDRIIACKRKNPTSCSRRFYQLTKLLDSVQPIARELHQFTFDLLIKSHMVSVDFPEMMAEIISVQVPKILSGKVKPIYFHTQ

[1] = target: Beta-3 adrenergic receptor (Homo sapiens, UniProt P13945)
[2] = target: Voltage-dependent N-type calcium channel subunit alpha-1B (Rattus norvegicus, UniProt Q02294); assay type: functional
[3] = target: Neurotensin receptor type 1 (Homo sapiens, UniProt P30989)
[4] = target: T2, 5-hydroxytryptamine receptor 1A (Homo sapiens, UniProt P08908)
T2 sequence (P08908 whole entry): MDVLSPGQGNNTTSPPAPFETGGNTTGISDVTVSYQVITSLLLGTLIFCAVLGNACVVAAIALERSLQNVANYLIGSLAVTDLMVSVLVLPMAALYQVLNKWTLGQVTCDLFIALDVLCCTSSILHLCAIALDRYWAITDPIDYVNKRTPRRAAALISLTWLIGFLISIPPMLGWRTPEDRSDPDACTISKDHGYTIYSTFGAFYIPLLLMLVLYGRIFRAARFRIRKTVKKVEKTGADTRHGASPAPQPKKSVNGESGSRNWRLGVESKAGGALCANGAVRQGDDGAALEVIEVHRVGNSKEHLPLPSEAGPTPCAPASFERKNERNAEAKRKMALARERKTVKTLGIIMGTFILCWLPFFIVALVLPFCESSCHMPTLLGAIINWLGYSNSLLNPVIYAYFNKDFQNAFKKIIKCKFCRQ

Progesterone receptor = target: T3, Progesterone receptor (Homo sapiens, UniProt P06401)
T3 sequence (P06401 whole entry): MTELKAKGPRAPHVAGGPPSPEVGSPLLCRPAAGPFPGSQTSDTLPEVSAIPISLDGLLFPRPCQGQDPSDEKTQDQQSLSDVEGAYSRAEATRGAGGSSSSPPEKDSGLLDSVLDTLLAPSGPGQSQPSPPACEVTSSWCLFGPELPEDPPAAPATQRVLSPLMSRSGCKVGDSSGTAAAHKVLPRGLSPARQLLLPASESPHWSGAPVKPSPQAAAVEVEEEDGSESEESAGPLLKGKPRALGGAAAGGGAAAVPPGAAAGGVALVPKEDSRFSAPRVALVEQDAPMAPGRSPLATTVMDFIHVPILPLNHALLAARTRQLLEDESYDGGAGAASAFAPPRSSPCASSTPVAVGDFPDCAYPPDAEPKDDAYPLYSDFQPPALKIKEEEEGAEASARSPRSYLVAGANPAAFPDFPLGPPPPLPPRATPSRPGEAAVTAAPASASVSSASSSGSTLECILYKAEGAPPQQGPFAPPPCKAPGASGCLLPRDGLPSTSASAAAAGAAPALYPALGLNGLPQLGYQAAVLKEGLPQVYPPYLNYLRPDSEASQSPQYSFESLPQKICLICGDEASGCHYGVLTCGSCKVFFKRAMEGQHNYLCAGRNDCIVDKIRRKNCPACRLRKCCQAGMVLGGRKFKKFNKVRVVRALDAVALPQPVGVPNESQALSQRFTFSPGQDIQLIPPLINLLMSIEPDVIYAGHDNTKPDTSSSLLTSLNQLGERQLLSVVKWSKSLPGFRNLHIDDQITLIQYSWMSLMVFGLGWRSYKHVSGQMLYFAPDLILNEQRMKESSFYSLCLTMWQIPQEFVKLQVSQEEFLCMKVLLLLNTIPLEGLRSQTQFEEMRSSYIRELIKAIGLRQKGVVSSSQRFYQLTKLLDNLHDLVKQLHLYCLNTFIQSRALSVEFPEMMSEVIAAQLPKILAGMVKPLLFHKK

Histamine H2 receptor = Histamine H2 receptor (Homo sapiens, UniProt P25021)
[5] = target: T4, Peroxisome proliferator-activated receptor gamma (Homo sapiens, UniProt P37231); assay type: functional
T4 sequence (P37231 whole entry): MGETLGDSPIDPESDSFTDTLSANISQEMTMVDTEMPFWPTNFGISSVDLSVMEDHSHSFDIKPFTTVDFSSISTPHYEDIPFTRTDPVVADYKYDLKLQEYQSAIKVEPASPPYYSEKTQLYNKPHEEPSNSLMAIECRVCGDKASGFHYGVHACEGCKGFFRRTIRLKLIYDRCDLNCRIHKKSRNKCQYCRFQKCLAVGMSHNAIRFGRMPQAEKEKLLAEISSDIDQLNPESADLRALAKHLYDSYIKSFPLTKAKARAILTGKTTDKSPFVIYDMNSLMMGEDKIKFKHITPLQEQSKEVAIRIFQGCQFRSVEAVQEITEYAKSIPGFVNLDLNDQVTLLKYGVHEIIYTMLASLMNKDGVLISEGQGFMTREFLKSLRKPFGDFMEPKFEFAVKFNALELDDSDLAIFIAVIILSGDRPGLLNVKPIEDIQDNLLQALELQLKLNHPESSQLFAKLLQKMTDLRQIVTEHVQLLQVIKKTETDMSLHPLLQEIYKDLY
Note: assay procedure not described here.

Sequence of Histamine H2 receptor (P25021 whole entry): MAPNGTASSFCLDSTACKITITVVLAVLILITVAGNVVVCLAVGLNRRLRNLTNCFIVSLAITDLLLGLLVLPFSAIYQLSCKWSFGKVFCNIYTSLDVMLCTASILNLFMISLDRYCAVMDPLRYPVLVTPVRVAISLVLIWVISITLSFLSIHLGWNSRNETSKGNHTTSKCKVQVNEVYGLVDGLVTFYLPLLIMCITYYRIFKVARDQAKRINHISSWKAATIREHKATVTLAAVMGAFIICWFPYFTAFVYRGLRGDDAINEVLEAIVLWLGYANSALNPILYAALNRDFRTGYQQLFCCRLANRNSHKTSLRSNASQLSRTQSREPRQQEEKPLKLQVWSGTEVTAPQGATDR
Sequence of Voltage-dependent N-type calcium channel subunit alpha-1B (Q02294 whole entry): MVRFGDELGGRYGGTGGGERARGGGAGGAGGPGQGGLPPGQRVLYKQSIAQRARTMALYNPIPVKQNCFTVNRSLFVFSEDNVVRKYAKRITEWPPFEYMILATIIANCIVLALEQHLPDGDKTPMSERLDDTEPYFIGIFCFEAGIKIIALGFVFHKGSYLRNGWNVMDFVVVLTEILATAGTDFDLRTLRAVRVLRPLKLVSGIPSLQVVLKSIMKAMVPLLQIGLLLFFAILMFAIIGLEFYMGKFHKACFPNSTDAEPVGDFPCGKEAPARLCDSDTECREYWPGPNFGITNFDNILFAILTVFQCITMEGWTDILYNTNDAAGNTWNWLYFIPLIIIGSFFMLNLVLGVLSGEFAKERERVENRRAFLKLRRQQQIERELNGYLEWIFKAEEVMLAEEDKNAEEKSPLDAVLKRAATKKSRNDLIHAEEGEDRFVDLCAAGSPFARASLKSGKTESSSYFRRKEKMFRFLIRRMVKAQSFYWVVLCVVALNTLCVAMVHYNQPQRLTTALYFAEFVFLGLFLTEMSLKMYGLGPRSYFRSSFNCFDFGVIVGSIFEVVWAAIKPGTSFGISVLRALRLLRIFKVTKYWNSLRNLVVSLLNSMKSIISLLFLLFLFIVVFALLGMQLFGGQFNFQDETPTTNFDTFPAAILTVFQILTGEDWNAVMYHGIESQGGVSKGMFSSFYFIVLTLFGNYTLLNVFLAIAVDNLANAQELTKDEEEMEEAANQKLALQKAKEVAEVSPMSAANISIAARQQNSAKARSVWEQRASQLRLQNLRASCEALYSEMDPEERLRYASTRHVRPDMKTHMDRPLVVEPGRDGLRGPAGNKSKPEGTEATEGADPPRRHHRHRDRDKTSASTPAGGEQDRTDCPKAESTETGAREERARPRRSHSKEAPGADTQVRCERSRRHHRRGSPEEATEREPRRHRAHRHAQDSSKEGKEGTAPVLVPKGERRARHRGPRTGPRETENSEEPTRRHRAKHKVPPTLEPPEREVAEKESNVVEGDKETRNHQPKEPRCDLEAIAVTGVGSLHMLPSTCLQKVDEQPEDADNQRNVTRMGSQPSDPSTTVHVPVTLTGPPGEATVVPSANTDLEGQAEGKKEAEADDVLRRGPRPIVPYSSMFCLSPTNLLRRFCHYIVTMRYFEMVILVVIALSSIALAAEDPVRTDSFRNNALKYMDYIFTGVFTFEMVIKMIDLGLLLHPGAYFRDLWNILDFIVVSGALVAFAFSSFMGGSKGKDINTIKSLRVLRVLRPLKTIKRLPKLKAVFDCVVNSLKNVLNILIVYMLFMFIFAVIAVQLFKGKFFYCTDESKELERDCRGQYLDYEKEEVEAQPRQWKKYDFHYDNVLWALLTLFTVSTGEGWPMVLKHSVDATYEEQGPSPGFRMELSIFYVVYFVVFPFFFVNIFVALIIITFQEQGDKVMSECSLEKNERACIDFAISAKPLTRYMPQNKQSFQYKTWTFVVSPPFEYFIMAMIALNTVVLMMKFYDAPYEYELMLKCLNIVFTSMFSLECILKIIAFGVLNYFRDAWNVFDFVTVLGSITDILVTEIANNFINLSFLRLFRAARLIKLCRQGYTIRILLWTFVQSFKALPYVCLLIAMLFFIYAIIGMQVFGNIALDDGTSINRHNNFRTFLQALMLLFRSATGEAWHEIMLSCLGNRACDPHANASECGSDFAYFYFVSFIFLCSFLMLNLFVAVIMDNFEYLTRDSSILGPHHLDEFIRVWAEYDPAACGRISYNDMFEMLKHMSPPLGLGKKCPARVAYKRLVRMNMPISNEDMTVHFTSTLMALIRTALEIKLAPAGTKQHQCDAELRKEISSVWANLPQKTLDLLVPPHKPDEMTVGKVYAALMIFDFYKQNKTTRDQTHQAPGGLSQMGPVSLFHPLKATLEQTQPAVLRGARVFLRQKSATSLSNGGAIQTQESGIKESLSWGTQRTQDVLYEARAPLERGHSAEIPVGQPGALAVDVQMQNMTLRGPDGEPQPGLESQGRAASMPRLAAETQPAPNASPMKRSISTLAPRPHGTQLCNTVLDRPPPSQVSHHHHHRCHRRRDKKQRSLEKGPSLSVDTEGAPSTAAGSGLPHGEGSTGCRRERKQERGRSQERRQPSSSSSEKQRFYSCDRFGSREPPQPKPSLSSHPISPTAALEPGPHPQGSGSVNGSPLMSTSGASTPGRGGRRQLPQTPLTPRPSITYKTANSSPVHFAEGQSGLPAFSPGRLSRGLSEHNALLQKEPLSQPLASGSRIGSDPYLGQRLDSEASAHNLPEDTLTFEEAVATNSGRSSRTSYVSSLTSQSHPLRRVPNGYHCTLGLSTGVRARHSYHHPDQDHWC
Sequence of Neurotensin receptor type 1 (P30989 whole entry): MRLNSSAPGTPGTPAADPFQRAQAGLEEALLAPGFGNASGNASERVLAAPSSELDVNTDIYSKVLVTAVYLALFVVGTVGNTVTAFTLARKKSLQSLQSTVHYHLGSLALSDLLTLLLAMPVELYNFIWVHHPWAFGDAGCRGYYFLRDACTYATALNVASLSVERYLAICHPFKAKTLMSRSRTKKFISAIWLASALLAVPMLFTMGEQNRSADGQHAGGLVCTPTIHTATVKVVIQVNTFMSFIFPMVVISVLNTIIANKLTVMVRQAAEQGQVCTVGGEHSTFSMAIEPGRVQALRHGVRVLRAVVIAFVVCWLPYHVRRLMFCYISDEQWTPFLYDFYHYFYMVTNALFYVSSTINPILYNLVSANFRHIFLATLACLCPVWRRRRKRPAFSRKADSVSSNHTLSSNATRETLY
Sequence of Beta-3 adrenergic receptor (P13945 whole entry): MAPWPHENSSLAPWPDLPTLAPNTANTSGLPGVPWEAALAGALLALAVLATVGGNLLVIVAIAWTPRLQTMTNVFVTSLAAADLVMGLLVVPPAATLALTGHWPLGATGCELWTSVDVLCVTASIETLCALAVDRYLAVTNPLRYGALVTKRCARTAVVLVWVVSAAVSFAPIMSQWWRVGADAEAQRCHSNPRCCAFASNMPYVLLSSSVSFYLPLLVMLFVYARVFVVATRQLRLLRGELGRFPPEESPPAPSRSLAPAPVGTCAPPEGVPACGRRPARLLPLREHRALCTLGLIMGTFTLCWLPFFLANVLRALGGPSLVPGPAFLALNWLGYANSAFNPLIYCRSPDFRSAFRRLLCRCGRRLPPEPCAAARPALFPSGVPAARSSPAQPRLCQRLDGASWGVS

| Compound | AC50 (Androgen receptor) [µM] | AC50 [2] [µM] | AC50 [4] [µM] | AC50 (Progesterone receptor) [µM] | further results |
| --- | --- | --- | --- | --- | --- |
| N#Cc1ccccc1-c1cc(-c2ccccn2)cn(-c2ccccc2)c1=O | > 30 |  |  |  |  |
| COc1ccc(/C=C/C(=O)Nc2ccccc2C(=O)O)cc1OC | > 30 |  |  |  |  |
| C=C[C@@]1(C)CC(=O)[C@]2(O)[C@@]3(C)[C@@H](O)CCC(C)(C)[C@@H]3[C@H](OC(=O)CCN(C)C)[C@H](OC(C)=O)[C@@]2(C)O1 | > 30 |  |  |  |  |
| NCCCC(O)(P(=O)(O)O)P(=O)(O)O [ALENDRONIC ACID] |  | > 10 | > 10 | > 30 | AC50 [1]: > 30 µM; AC50 [3]: > 30 µM; AC50 (Histamine H2 receptor): > 10 µM |
| Nc1ccc(C(=O)O)c(O)c1 [AMINOSALICYLIC ACID] | > 30 |  |  |  |  |
| COc1cc(OC)c(C(=O)CCCN2CCCC2)c(OC)c1 [BUFLOMEDIL] | > 30 |  |  |  |  |
| CS(=O)(=O)OCCCCOS(C)(=O)=O [BUSULFAN] |  |  |  |  | AC50 [5]: > 30 µM |
| C=CC1=C(C(=O)O)N2C(=O)[C@@H](NC(=O)/C(=N\OCC(=O)O)c3csc(N)n3)[C@H]2SC1 [CEFIXIME] |  |  |  |  | AC50 [5]: > 30 µM |
| CO[C@@]1(NC(=O)Cc2cccs2)C(=O)N2C(C(=O)O)=C(COC(N)=O)CS[C@@H]21 [CEFOXITIN] |  |  |  |  | AC50 [5]: 11 µM |
| CCN(CC)CCOC(=O)c1ccc(N)cc1Cl [CHLOROPROCAINE] |  |  |  |  | AC50 [5]: > 30 µM |
| CC(C)(C)NCC(O)c1cc(Cl)c(N)c(Cl)c1 (configuration not stated) [CLENBUTEROL] | > 30 |  |  |  |  |
| CCC(C)(Oc1ccc(C2(c3ccc(OC(C)(CC)C(=O)O)cc3)CCCCC2)cc1)C(=O)O (configuration not stated) [CLINOFIBRATE] | > 30 |  |  |  |  |
| COc1cccc2c1C(=O)c1c(O)c3c(c(O)c1C2=O)C[C@@](O)(C(C)=O)C[C@@H]3O[C@H]1C[C@H](N)[C@H](O)[C@H](C)O1 [DAUNORUBICIN] |  |  |  |  | AC50 [5]: > 10 µM |
| N[C@H](Cc1cc(I)c(Oc2cc(I)c(O)c(I)c2)c(I)c1)C(=O)O [DEXTROTHYROXINE] |  | > 10 | > 10 | > 30 | AC50 [1]: > 30 µM; AC50 [3]: 4.8 µM; AC50 (Histamine H2 receptor): > 10 µM |
| CCCCC[C@H](O)/C=C/[C@H]1[C@H](O)CC(=O)[C@@H]1C/C=C\CCCC(=O)O [DINOPROSTONE] | 23 |  |  |  |  |
| COC(=O)N[C@@H](C)CNc1nccc(-c2cn(C(C)C)nc2-c2cc(Cl)cc(NS(C)(=O)=O)c2F)n1 [ENCORAFENIB] | > 30 |  |  |  |  |
| Clc1ccc2c(c1)C(c1ccccc1)=NCc1nncn1-2 [ESTAZOLAM] |  |  | > 10 | > 30 |  |
| CCCN(CC)C(CC)C(=O)Nc1c(C)cccc1C (configuration not stated) [ETIDOCAINE] |  |  | > 30 |  |  |
| CC(=O)OCC(CCn1cnc2cnc(N)nc21)COC(C)=O [FAMCICLOVIR] |  | > 10 | > 10 | > 30 | AC50 [1]: > 30 µM; AC50 [3]: > 30 µM; AC50 (Histamine H2 receptor): > 10 µM |

| Compound | AC50 (Androgen receptor) [µM] | AC50 [2] [µM] | AC50 [4] [µM] | AC50 (Progesterone receptor) [µM] | further results |
| --- | --- | --- | --- | --- | --- |
| O=C(O)c1ccccc1Nc1cccc(C(F)(F)F)c1 [FLUFENAMIC ACID] |  | > 10 | > 10 | > 30 | AC50 [1]: > 30 µM; AC50 [3]: > 30 µM |
| O=C(O)c1ccccc1OP(=O)(O)O [FOSFOSAL] |  |  |  |  | AC50 [5]: > 30 µM |
| Nc1ccn([C@@H]2O[C@H](CO)[C@@H](O)C2(F)F)c(=O)n1 [GEMCITABINE] |  |  | > 10 |  |  |
| CCCCCCOC(=O)CCC(=O)CN [HEXAMINOLEVULINATE] | > 30 |  |  |  |  |
| COC1=C(OC)C(=O)C(CCCCCCCCCCO)=C(C)C1=O [IDEBENONE] |  | > 10 | > 10 | 27.6 | AC50 [1]: > 30 µM; AC50 [3]: > 30 µM; AC50 (Histamine H2 receptor): > 10 µM |
| CC#CCn1c(N2CCC[C@@H](N)C2)nc2c1c(=O)n(Cc1nc(C)c3ccccc3n1)c(=O)n2C [LINAGLIPTIN] |  | > 10 | > 10 | > 30 | AC50 [1]: > 30 µM; AC50 (Histamine H2 receptor): 12.3 µM |
| CC(C)OC(=O)C(C(=O)OC(C)C)=C1SC=CS1 [MALOTILATE] | > 30 |  |  |  |  |
| O=C1CN=C(c2ccccc2)c2cc(Cl)ccc2N1 [NORDAZEPAM] |  | > 10 | > 10 | > 30 | AC50 [1]: > 30 µM; AC50 [3]: 14 µM; AC50 (Histamine H2 receptor): > 10 µM |
| CC(CCc1ccccc1)NC(C)C(O)c1ccc(O)cc1 (configuration not stated) [NYLIDRIN] |  | > 10 | 3.38 | > 30 | AC50 [1]: > 30 µM; AC50 [3]: > 30 µM; AC50 (Histamine H2 receptor): > 10 µM |
| CCn1cc(C(=O)O)c(=O)c2cc(F)c(N3CCN(C)CC3)cc21 [PEFLOXACIN] |  |  |  |  | AC50 [5]: > 30 µM |
| CC(=O)c1ccc2c(c1)N(CCCN1CCC(CCO)CC1)c1ccccc1S2 [PIPERACETAZINE] |  |  | 0.0421 |  |  |
| CCCNC(C)C(=O)Nc1ccccc1C (configuration not stated) [PRILOCAINE] |  |  |  |  | AC50 [5]: > 30 µM |
| CCN(CC)CC(=O)Oc1ccc(NC(C)=O)cc1 [PROPACETAMOL] | > 30 |  |  |  |  |
| CC(C)CC(N(C)C)C1(c2ccc(Cl)cc2)CCC1 (configuration not stated) [SIBUTRAMINE] |  | > 10 | > 10 | > 30 | AC50 [1]: > 30 µM; AC50 [3]: > 30 µM; AC50 (Histamine H2 receptor): > 10 µM |
| [H]/N=C(/N)N[C@H]1[C@H](O)[C@@H](O)[C@H](O[C@@H]2O[C@@H](C)[C@](O)(C=O)[C@H]2O[C@@H]2O[C@@H](CO)[C@H](O)[C@@H](O)[C@@H]2NC)[C@@H](N/C(N)=N\[H])[C@@H]1O [STREPTOMYCIN] |  | > 10 | > 10 | > 30 | AC50 [1]: > 30 µM; AC50 [3]: > 30 µM; AC50 (Histamine H2 receptor): > 10 µM |
| COc1cc2c(Nc3ccc(Br)cc3F)ncnc2cc1OCC1CCN(C)CC1 [VANDETANIB] |  |  |  |  | AC50 [5]: > 30 µM |
| COc1ccc(C(CN(C)C)C2(O)CCCCC2)cc1 (configuration not stated) [VENLAFAXINE] |  | > 10 | > 10 | > 30 |  |
| N#C[C@@H]1CCCN1C(=O)CNC12CC3CC(CC(O)(C3)C1)C2 [VILDAGLIPTIN] |  | > 10 | > 10 | > 30 | AC50 [3]: > 10 µM; AC50 (Histamine H2 receptor): > 10 µM |

Reference: ChEMBL document CHEMBL5291721, “A preclinical secondary pharmacology resource illuminates target-adverse drug reaction associations of marketed drugs” (Nat Commun, 2023)
